This passage reports T/C results from PubChem BioAssay AID330 (DTP/NCI, 2004).

Several values for one entry are separate records, joined by “and”; a condition that tells them apart may be missing. Identical values can stand only once. Inconclusive results and toxic doses are left out.

The subject of this test is P388 leukemia ip, CD2F1 mice, survival T/C. Description: NCI In Vivo Anticancer Drug Screen. Data for tumor model P388 Leukemia (intraperitoneal) in CD2F1 (CDF1) mice. To be noted: endpoint: median survival time, higher = longer survival. The method in brief: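 Mice carrying the transplanted tumor received test compound or vehicle. Survival was recorded in each group, and the value is the treated-group measurement divided by that of the vehicle-treated control group.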

[1] abbreviates: dose: 25.0 mg/kg/injection, schedule: Q01DX009 (ip), vehicle: saline.
[2] abbreviates: dose: 50.0 mg/kg/injection, schedule: Q01DX005 (ip), vehicle: Klucel (hydroxypropylcellulose) (HPC).
Setting [3] is: dose: 100.0 mg/kg/injection, schedule: Q01DX005 (ip), vehicle: Klucel (hydroxypropylcellulose) (HPC).
[4] abbreviates: dose: 200.0 mg/kg/injection, schedule: Q01DX005 (ip), vehicle: Klucel (hydroxypropylcellulose) (HPC).
Setting [5] is: dose: 60.0 mg/kg/injection, schedule: Q01DX005 (ip), vehicle: saline.
Setting [6] is: dose: 120.0 mg/kg/injection, schedule: Q01DX005 (ip), vehicle: saline.
Setting [7] is: dose: 240.0 mg/kg/injection, schedule: Q01DX005 (ip), vehicle: saline.

Turning to `CCCCCC[N+]1(CC)CCCCC1`, the T/C by setting is: (dose: 6.25 mg/kg/injection, schedule: Q01DX009 (ip), vehicle: saline) 107 % of control; (dose: 12.5 mg/kg/injection, schedule: Q01DX009 (ip), vehicle: saline) 105 % of control; under setting [1], 107 % of control.
On to `CC(C)(C)C(C)(C)c1ccc(OCCSCCOc2ccc(C(C)(C)C(C)(C)C)cc2)cc1`, for which the T/C by setting is: (dose: 50.0 mg/kg/injection, schedule: Q01DX009 (ip), vehicle: saline with Tween-80) 92 % of control; (dose: 100.0 mg/kg/injection, schedule: Q01DX009 (ip), vehicle: saline with Tween-80) 90 % of control; (dose: 200.0 mg/kg/injection, schedule: Q01DX009 (ip), vehicle: saline with Tween-80) 87 % of control.
Regarding `CC(C)C1=CC(=O)C2=C(CCC3C(C)(C(=O)O)CCC[C@]23C)C1=O` (some centres undefined), the T/C was 102 % of control (dose: 6.0 mg/kg/injection, schedule: Q01DX005 (ip), vehicle: Klucel (hydroxypropylcellulose) (HPC)); 104 % of control (dose: 12.0 mg/kg/injection, schedule: Q01DX005 (ip), vehicle: Klucel (hydroxypropylcellulose) (HPC)); 100 % of control (dose: 24.0 mg/kg/injection, schedule: Q01DX005 (ip), vehicle: Klucel (hydroxypropylcellulose) (HPC)); 99 % of control (dose: 48.0 mg/kg/injection, schedule: Q01DX005 (ip), vehicle: Klucel (hydroxypropylcellulose) (HPC)).
As to `CC12CC=CCC1CCC1C2CCC2(C)C(O)C(O)CC12` (centres undefined), the T/C runs as follows: under setting [2], 101 % of control; under setting [3], 95 % of control; under setting [4], 93 % of control.
Regarding `COC(=O)CCc1c(C)nc(N(C)C)oc1=O`, the T/C under setting [5] is 100 % of control, the T/C under setting [6] was 100 % of control and the T/C under setting [7] is 99 % of control.
As for `O=S(=O)(Nc1ccnn1-c1ccccc1)c1ccc(N=Cc2c3ccccc3nc3cc(Cl)ccc23)cc1`, the T/C is 94 % of control (dose: 60.0 mg/kg/injection, schedule: Q01DX005 (ip), vehicle: saline with Tween-80); 91 % of control (dose: 120.0 mg/kg/injection, schedule: Q01DX005 (ip), vehicle: saline with Tween-80); 102 % of control (dose: 240.0 mg/kg/injection, schedule: Q01DX005 (ip), vehicle: saline with Tween-80).
Turning to `COc1nc(NC2OCC(O)C(O)C2O)c(C=O)c(=O)n1C` (centres undefined), the T/C runs as follows: under setting [5], 100 % of control; under setting [6], 90 % of control; under setting [7], 90 % of control.
For the compound `CC1(c2ccccc2)NC(=O)N(Sc2ccccc2)C1=O` (centres undefined), the T/C under setting [2] is 111 % of control, the T/C under setting [3] is 113 % of control and the T/C under setting [4] was 107 % of control.
As to `CCOC(=O)Nc1c(C)cc(C)cc1C`, the T/C runs as follows: (dose: 25.0 mg/kg/injection, schedule: Q01DX009 (ip), vehicle: Klucel (hydroxypropylcellulose) (HPC)) 99 % of control; (dose: 50.0 mg/kg/injection, schedule: Q01DX009 (ip), vehicle: Klucel (hydroxypropylcellulose) (HPC)) 100 % of control; (dose: 100.0 mg/kg/injection, schedule: Q01DX009 (ip), vehicle: Klucel (hydroxypropylcellulose) (HPC)) 94 % of control; (dose: 200.0 mg/kg/injection, schedule: Q01DX009 (ip), vehicle: Klucel (hydroxypropylcellulose) (HPC)) 100 % of control.
`O=C1C2=C(Nc3ccccc3N2)OC1c1ccco1` (centres undefined): the T/C (dose: 12.5 mg/kg/injection, schedule: Q01DX005 (ip), vehicle: Klucel (hydroxypropylcellulose) (HPC)) is 103 % of control; the T/C (dose: 25.0 mg/kg/injection, schedule: Q01DX005 (ip), vehicle: Klucel (hydroxypropylcellulose) (HPC)) was 100 % of control; the T/C under setting [2] was 102 % of control and 89 % of control.
Regarding `CN(Cc1ccccc1)N=NCc1ccccc1`, the T/C (dose: 12.5 mg/kg/injection, schedule: Q01DX005 (ip), vehicle: saline with Tween-80) is 103 % of control; the T/C (dose: 25.0 mg/kg/injection, schedule: Q01DX005 (ip), vehicle: saline with Tween-80) was 115 % of control; the T/C (dose: 50.0 mg/kg/injection, schedule: Q01DX005 (ip), vehicle: saline with Tween-80) was 154 % of control.
`CN=C(N)NN`: the T/C is, setting by setting: under setting [1], 101 % of control; (dose: 50.0 mg/kg/injection, schedule: Q01DX009 (ip), vehicle: saline) 97 % of control; (dose: 100.0 mg/kg/injection, schedule: Q01DX009 (ip), vehicle: saline) 93 % of control; (dose: 200.0 mg/kg/injection, schedule: Q01DX009 (ip), vehicle: saline) 97 % of control.
